Test results as given in EP1724268A1, “COMPOUND HAVING TGF-BETA INHIBITORY ACTIVITY AND PHARMACEUTICAL COMPOSITION CONTAINING SAME” (KIRIN BEER KABUSHIKI KAISHA, priority 2004, dated 2005).
Read-outs that look alike come from different tables or passages of the source.

Test system: TGFβ signal
Assay: TGFβ signal inhibitory activity, (SBE)4-Luc reporter in A549 cells (Test Examples 1A and 1B)
Assay type: cell-based, human
Details: Homo sapiens; for inhibition at 1 µM: test compound 1 µM
Summary of the method: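 Stable A549 line carrying (SBE)4-Luc Smad3-binding reporter treated with compound plus TGFβ-1 (2 ng/ml) for 4 hr; luciferase read by chemiluminescence. Percent inhibition relative to TGFβ-only and untreated cells, tested at 3 µM and 10 µM, some also at 1 µM.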

[1] = A549, test compound 3 µM, TGFβ-1 2 ng/ml, 4 hr, Table 1A, read-out: TGFβ inhibition rate, %
[2] = A549, test compound 10 µM, TGFβ-1 2 ng/ml, 4 hr, Table 1A, read-out: TGFβ inhibition rate, %
[3] = A549, 3 µM, compounds of Reference Examples (Test Example 1B), read-out: TGFβ inhibition rate, %
[4] = A549, 10 µM, compounds of Reference Examples (Test Example 1B), read-out: TGFβ inhibition rate, %
[5] = A549, test compound 3 µM, Reference Examples, Table 1B, read-out: TGFβ inhibition rate, %
[6] = A549, test compound 10 µM, Reference Examples, Table 1B, read-out: TGFβ inhibition rate, %
[7] = A549, TGFβ-1 2 ng/ml, 4 hr, Table 1A, read-out: TGFβ inhibition rate, %
[8] = A549, read-out: TGFβ inhibition rate, %

| SMILES | inhibition at 3 µM [1] [%] | inhibition at 3 µM [3] [%] | inhibition at 10 µM [4] [%] | other results |
| --- | --- | --- | --- | --- |
| COc1cc2c(Oc3cc(C)c(C)nc3-c3ccccn3)ccnc2cc1F [Compound 104, 3-(7-Fluoro-6-methoxy-quinolin-4-yloxy)-5,6-dimethyl-[2,2']bipyridine] | 99 | – | – | inhibition at 10 µM [2]: 100% |
| COc1cc2c(Oc3cc4ccccc4nc3C)ccnc2cc1OCC1CO1 (stereo not shown) [Compound r383, 6-Methoxy-4-(2-methyl-quinolin-3-yloxy)-7-oxilanyl methoxy-quinoline] | – | 97 | 100 | – |
| COc1cc2nccc(Oc3cc(C)c(Cl)cc3C(C)=O)c2cc1OC [Compound r37] | – | – | – | inhibition at 3 µM [5]: 94%; inhibition at 10 µM [6]: 100% |
| COc1cc2nccc(Oc3ccc(C)cc3C(=O)C(C)C)c2cc1OC [Compound r53] | – | – | – | inhibition at 3 µM [5]: 97%; inhibition at 10 µM [6]: 100% |
| COc1cc2nccc(Oc3ccc(C)nc3Cc3cccc(C)n3)c2cc1OC [r215] | – | 72 | 99 | – |
| COc1cc2nccc(Oc3ccc(C)nc3-c3ccc(CO)cc3)c2cc1OC [Compound r245] | – | 80 | 99 | – |
| CCCCOc1ccc(Oc2ccnc3cc(OC)c(OC)cc23)c(C(C)=O)c1 [r180] | – | -2 | 55 | – |
| COc1cc2nccc(Oc3ccc(C)nc3-c3cnn(C)c3)c2cc1OC [r438] | – | 99 | 100 | – |
| Cc1cc(Oc2ncnc3sccc23)c(-c2ccccn2)nc1C [Compound 32, 5,6-Dimethyl-3-(thieno[2,3-d]pyrimidin-4-yloxy)-[2,2']bipyridine] | 64 | – | – | inhibition at 10 µM [2]: 94% |
| COc1ccc2c(Oc3cc4cccnc4nc3-c3ccccc3)ccnc2c1 [Compound 56, 3-(7-Methoxy-quinolin-4-yloxy)-2-phenyl-[1,8]naphthyridine] | 99 | – | – | inhibition at 10 µM [2]: 100% |
| COc1cc2c(Oc3cc(C)c(C)nc3-c3cccnc3)ccnc2cc1OCCO [Compound r346] | – | 99 | – | – |
| COc1cc2c(Oc3cc4ccccc4nc3C(C)=O)ccnc2cc1OCCN1CCOCC1 [Compound r391] | – | 99 | 100 | – |
| COc1cc2c(Oc3cc4cccnc4nc3-c3ccccc3)ccnc2cc1C(N)=O [Compound 147, 6-Methoxy-4-(2-phenyl-[1,8]naphthyridin-3-yloxy)-quinoline-7-carboxylic acid amide] | 34 | – | – | inhibition at 10 µM [2]: 77% |
| COc1cc2nccc(Oc3cc(C)c(C)nc3-c3ccccn3)c2cc1OCc1ccccc1 [Compound 138, 3-(6-Benzyloxy-7-methoxy-quinolin-4-yloxy)-5,6-dimethyl-[2,2'] bipyridine] | 98 | – | – | inhibition at 10 µM [2]: 100% |
| CCOC(=O)c1ccc(C)cc1Oc1ccnc2cc(OC)c(OC)cc12 [Compound r82] | – | – | – | inhibition at 3 µM [5]: 90%; inhibition at 10 µM [6]: 99% |
| COc1cc2nccc(Oc3cncc(Cl)c3)c2cc1OC [r208] | – | 18 | 73 | – |
| CCOC(=O)c1cc(C)ccc1Oc1ccnc2cc(OC)c(OC)cc12 [Compound r87] | – | – | – | inhibition at 3 µM [5]: 84%; inhibition at 10 µM [6]: 99% |
| COc1cc2nccc(Oc3ccc(C)cc3C(=O)N3CCCCC3)c2cc1OC [r109] | – | – | – | inhibition at 3 µM [5]: 5%; inhibition at 10 µM [6]: 66% |
| COc1cc2nccc(Oc3ccc(C)nc3-c3ccccc3C)c2cc1OC [Compound r224] | – | 69 | 96 | – |
| COc1cc2nccc(Oc3ccc4c(ccn4C(C)=O)c3)c2cc1OC [Compound r21] | – | – | – | inhibition at 3 µM [5]: 16%; inhibition at 10 µM [6]: 71% |
| CCOC(=O)c1cc(-c2ccc(F)cc2F)ccc1Oc1ccnc2cc(OC)c(OC)cc12 [Compound r89] | – | – | – | inhibition at 3 µM [5]: 20%; inhibition at 10 µM [6]: 63% |
| COc1ccc(Oc2ccnc3cc(OCCN4CCOCC4)c(OC)cc23)c(C(C)=O)c1 [r120] | – | – | – | inhibition at 3 µM [5]: 94%; inhibition at 10 µM [6]: 100% |
| COc1cc2ncnc(Oc3cc(C)c(C)nc3-c3cccc(C)n3)c2cc1OC [Compound 41, 6,7-Dimethoxy-4-(5,6,6'-trimethyl-[2,2']bipyridin-3-yloxy)-quinazoline] | 66 | – | – | inhibition at 10 µM [2]: 98% |
| Cc1cc(Oc2ccnc3ccc(O)cc23)c(-c2ccccn2)nc1C [Compound 139, 4-(5,6-Dimethyl-[2,2']bipyridinyl-3-yloxy)-quinolin-6-ol] | 100 | – | – | inhibition at 10 µM [2]: 100% |
| Cc1cc(Oc2ncnc3ccsc23)c(-c2ccccn2)nc1C [Compound 33, 5,6-Dimethyl-3-(thieno[3,2-d]pyrimidin-4-yloxy)-[2,2']bipyridine] | 86 | – | – | inhibition at 10 µM [2]: 99% |
| Cc1cc(Oc2ccnc3ccccc23)c(-c2cccnc2)nc1C [Compound 43, 5,6-Dimethyl-3-(quinolin-4-yloxy)-[2,3']bipyridine] | 84 | – | – | inhibition at 1 µM [7]: 45% |

| SMILES | inhibition at 3 µM [1] [%] | inhibition at 3 µM [3] [%] | inhibition at 10 µM [4] [%] | other results |
| --- | --- | --- | --- | --- |
| CCC(=O)c1cc(OC(F)(F)F)ccc1Oc1ccnc2cc(OC)c(OC)cc12 [Compound r51] | – | – | – | inhibition at 3 µM [5]: 71%; inhibition at 10 µM [6]: 99% |
| CCOC(=O)/C=C/c1cc2nccc(Oc3cc4ccccc4nc3C)c2cc1OC [Compound r413] | – | 31 | 76 | – |
| COc1ccc(C(=O)c2ccc(C)cc2)c(Oc2ccnc3cc(OC)c(OC)cc23)c1 [Compound r65] | – | – | – | inhibition at 3 µM [5]: 58%; inhibition at 10 µM [6]: 100% |
| COc1cc2nccc(Oc3ccc(C)cc3Br)c2cc1OC [Compound r4] | – | – | – | inhibition at 3 µM [5]: 20%; inhibition at 10 µM [6]: 78% |
| Cc1cc(Oc2ccnc3ccc(-c4ccncc4)cc23)c(-c2ccccn2)nc1C [Compound 7, 5,6-Dimethyl-3-(6-pyridin-4-yl-quinolin-4-yloxy)-[2,2']bipyridine] | 100 | – | – | inhibition at 10 µM [2]: 100% |
| COc1cc2nccc(Oc3cc4ccncc4cc3C)c2cc1OC [Compound r300, 6,7-Dimethoxy-4-(7-methyl-isoquinolin-6-yloxy)-quinoline] | – | 9 | 63 | – |
| Cc1cc(Oc2ccnc3ccc(-c4ccccc4)cc23)c(-c2ccccn2)nc1C [Compound 5, 5,6-Dimethyl-3-(6-phenyl-quinolin-4-yloxy)-[2,2']bipyridine] | 79 | – | – | inhibition at 10 µM [2]: 100% |
| COc1cc2nccc(Oc3cnc4ncccc4c3)c2cc1OC [Compound r427] | – | 44 | 80 | – |
| COc1cc2nccc(Oc3ccc(C(=O)c4cccc(C)c4)cc3)c2cc1OC [r78] | – | – | – | inhibition at 3 µM [5]: 0%; inhibition at 10 µM [6]: 57% |
| COc1cc2nccc(Oc3ccc(C)nc3-c3ccccc3Cl)c2cc1OC [Compound r228] | – | 88 | 100 | – |
| COc1ccc(Oc2ccnc3cc(OCCCCl)c(OC)cc23)c(C(C)=O)c1 [Compound r121] | – | – | – | inhibition at 3 µM [5]: 100%; inhibition at 10 µM [6]: 100% |
| Cc1cc(Oc2ccnc3c(F)cc(F)cc23)c(-c2ccccn2)nc1C [Compound 111, 3-(6,8-Difluoro-quinolin-4-yloxy)-5,6-dimethyl-[2,2']bipyridine] | 43 | – | – | inhibition at 10 µM [2]: 84% |
| Cc1cc(Oc2ncnc3ccc(Cl)cc23)c(-c2ccccn2)nc1C [Compound 24, 6-Chloro-4-(5,6-dimethyl-[2,2']bipyridin-3-yloxy)-quinazoline] | 90 | – | – | inhibition at 10 µM [2]: 99% |
| COc1cc2nccc(Oc3cc(C)c(C)nc3-c3nc(C)c(C)s3)c2cc1OC [Compound r260, 4-[2-(4,5-Dimethylthiazol-2-yl)-5,6-dimethyl-pyridin-3-yloxy]-6,7-dimethoxy-quinoline] | – | 96 | 100 | – |
| COc1cc2ncnc(Oc3cc(C)c(C)nc3-c3cccnc3)c2cc1OC [Compound 48, 4-(5,6-Dimethyl-[2,3']bipyridinyl-3-yloxy)-6,7-dimethoxy-quinazoline] | 64 | – | – | inhibition at 1 µM [7]: 28% |
| COc1cc2nccc(Oc3cc4ccccc4nc3I)c2cc1OC [r282] | – | 96 | 100 | – |
| COc1cc2nccc(Oc3ccc(C)cc3C(=O)C3CCCC3)c2cc1OC [r58] | – | – | – | inhibition at 3 µM [5]: 90%; inhibition at 10 µM [6]: 100% |
| COc1cc2nccc(Oc3cc(Cl)ccc3C(C)=O)c2cc1OC [r181] | – | 42 | 82 | – |
| COc1cc2nccc(Oc3cc(C)c(C)nc3-c3cccnc3C)c2cc1OC [Compound 44, 3-(6,7-Dimethoxy-quinolin-4-yloxy)-5,6,2'-trimethyl-[2,3']bipyridine] | 82 | – | – | inhibition at 10 µM [2]: 99% |
| COc1cc2nccc(Oc3cc(C)c(C)nc3-c3cc(C)ccn3)c2cc1OC [Compound r273] | – | 99 | 100 | – |
| CCc1ccc(Oc2ccnc3cc(OC)c(OC)cc23)c(C(C)=O)c1 [r172] | – | 82 | 99 | – |
| COc1cc2nccc(Oc3cc(C)c(C)nc3-c3ccccn3)c2cc1OCCO [Compound 144, 2-[4-(5,6-Dimethyl-[2,2']bipyridinyl-3-yloxy)-7-methoxy-quinolin-6-yloxy]-ethanol] | 93 | – | – | inhibition at 10 µM [2]: 100% |
| COc1cc2nccc(Oc3ccccc3C(=O)c3ccccc3)c2cc1OC [Compound r63] | – | – | – | inhibition at 3 µM [8]: 57%; inhibition at 10 µM [8]: 91% |
| COc1ccc(Oc2ccnc3cc(OC)c(OC)cc23)c(C(C)=O)c1 [r177] | – | – | – | inhibition at 3 µM [8]: 94% |
| Cc1cc(Oc2ccnc3cc(-c4ccccn4)ccc23)c(-c2ccccn2)nc1C [Compound 176, 5,6-Dimethyl-3-(7-pyridin-2-yl-quinolin-4-yloxy)-[2,2']bipyridine] | 99 | – | – | inhibition at 10 µM [2]: 100% |
